According to patent publication US7238725B2, “Tricyclic compounds useful for the treatment of inflammatory and allergic disorders: process for their preparation and pharmaceutical compositions containing them” (Glenmark Pharmaceuticals Ltd., priority 2002, dated 2007):

Columns and labels:
PDE4 = experiment: Cell Based Assay for PDE4 Inhibition: cAMP elevation in whole U937 cells; conditions: 1 μM PGE1, normalized over PGE1
Protocol: Cell Based Assay for PDE4 Inhibition:
cAMP elevation studies were conducted in whole U937 cells. U937 cells (ATCC) were grown in RPMI medium containing 10% FBS, 1% pen-strep solution, 1% L-glutamine for 48 hrs. On the day of assay, the cells were washed twice with plain RPM1 medium by centrifuging at 800 rpm for 5 mins. Cells were resuspended in plain RPM1 medium followed by cell number and viability assessment using a trypan blue stain. Cells (0.15-0.2 mio cells per well) were seeded in a 96 well microtitre plate and incubated with various drugs/DMSO vehicle at 37° C. for 15 min. cAMP generation was started by addition of 1 μM PGE1 for 15 mins. The incubation was terminated by addition of cell lysis buffer from cAMP estimation kit. Lysate was used for cAMP quantitatin by chemiluminescence method (DiscoveRX kits). cAMP values were normalized over PGE1. EC50 values were calculated from dose response curves by nonlinear regression analysis using PRISM software.

PDE4 enzyme = experiment: Inhibition of Phosphodiesterase Enzymes (PDE4), [3H]cAMP hydrolysis; type: biochemical; conditions: PDE4 enzyme, 1 μM cAMP and 3H cAMP, 34° C.; read-out: IC50
Protocol: Inhibition of Phosphodiesterase Enzymes (PDE4)
In this assay, PDE4 enzyme converts [^3H] cAMP to the corresponding [^3H] 5′-AMP in proportion to the amount of PDE4 present The [^3H] 5′-AMP then was quantitatively converted to free [^3H] adenosine and phosphate by the action of snake venom 5′-nucleotidase.
The assay was performed with modification of the method of Thompson and Appleman (Biochemistry; 1971; 10; 311-316) and Schwartz and Passoneau (Proc. Natl. Acad. Sci. U.S.A. 1974; 71; 3844-3848), both references incorporated herein by reference in their entirety, at 34° C. In a 200 ul total reaction mixture, the reaction mixture contained 12.5 mM of Tris, 5 mM MgCl2, 1 μM cAMP (cold) and ^3H cAMP (0.1 uCi), (Amersham). […] Drug samples were then added in the reaction mixture (25 μl/tube). The assay was initiated by addition of enzyme mix (75 μl) and the mixture was incubated for 20 minutes at 34° C. The reaction was stopped by boiling the tubes for 2 mins at 100° C. in a water bath. After cooling on ice for 5 minutes and addition of 50 ug/reaction of 5′-nucleotidase snake venom from Crotalus atrox incubation was carried out again for 20 min. at 34° C. The unreacted substrate was separated from (^3H) Adenosine by addition of Dowex AG 1-X8 (Biorad Lab), (400 ul) which was prequilibrated (1:1:1) in water and ethanol. Reaction mixture was then thoroughly mixed, placed on ice for 15 minutes, vortexed and centrifuged at 14,000 r.p.m. for 2 mins. After centrifugation, a sample of the supernatant was taken and added in 24 well optiplates containing Scintillant (1 ml) and mixed well. The samples in the plates were then determined for radioactivity in a Top Counter and the PDE4 activity was estimated. PDE4 enzyme was present in quantities that yield <30% total hydrolysis of substrate (linear assay conditions).
Results were expressed as percent inhibition (IC50) in nM concentrations. The IC50 values were determined from the concentration curves by nonlinear regression analysis.
The IC50 value for the compound examined was determined from concentration-response curves in which varying range of concentrations were considered as shown in table 1

SMILES | melting point | EC50 (PDE4) | IC50 (PDE4 enzyme)
COc1ccc(C(=O)Nc2c(Cl)c[n+]([O-])cc2Cl)c2c1oc1ccccc12 [Example 2, N-(3,5-dichloropyrid-4-yl)-4-methoxy dibenzo[b,d]furan-1-carboxamide-N1-oxide] | 265 to 270 °C | 23.8 nM | 
COc1ccc(C(=O)Nc2cc[n+]([O-])cc2)c2c1oc1ccccc12 [Example 4, N(pyrid-4-yl)-4-methoxy dibenzo[b,d]furan-1-carboxamide-N1-oxide] |  | > 300 nM | 20.2 nM
COc1ccc(C(=O)Nc2cccnc2Cl)c2c1oc1ccccc12 [Example 5, N-(2-chloropyrid-3-yl)-4-methoxy dibenzo[b,d]furan-1-carboxamide] | 192 °C |  | 336 nM
COc1ccc(C(=O)Nc2cccnc2)c2c1oc1ccccc12 [Example 7, N-(pyrid-3-yl)-4-methoxy dibenzo[b,d]furan-1-carboxamide] | 226 °C |  | 26 nM
COc1ccc(C(=O)Nc2c(Cl)cncc2Cl)c2c1oc1ccc(C(F)(F)F)cc12 [Example 9, N-(3,5-dichloropyrid-4-yl)-4-methoxy-8-trifluoromethyl dibenzo[b,d]furan-1-carboxamide] |  | 17.6 nM | 1.56 nM
COc1ccc(C(=O)Nc2c(Cl)c[n+]([O-])cc2Cl)c2c1oc1ccc(C(F)(F)F)cc12 [Example 10, N-(3,5-dichloropyrid-4-yl)-4-methoxy-8-trifluoromethyl dibenzo[b,d]furan-1-carboxamide-N1-oxide] |  | 117 nM | 1.68 nM
COc1ccc(C(=O)Nc2ccncc2)c2c1oc1ccc(C(F)(F)F)cc12 [Example 11, N(pyrid-4-yl)-4-methoxy-8-trifluoromethyl dibenzo[b,d]furan-1-carboxamide] |  | > 220 nM | 9.14 nM
O=C(Nc1c(Cl)cncc1Cl)c1ccc(OC(F)F)c2oc3ccc(C(F)(F)F)cc3c12 [Example 12, N-(3,5-dichloropyrid-4-yl)-4-difluoromethoxy-8-trifluoromethyl dibenzo[b,d]furan-1-carboxamide] | 228 °C | 140 nM | 1.21 nM
O=C(Nc1c(Cl)c[n+]([O-])cc1Cl)c1ccc(OC(F)F)c2oc3ccc(C(F)(F)F)cc3c12 [Example 13, N-(3,5-dichloropyrid-4-yl)-4-difluoromethoxy-trifluoromethyl dibenzo[b,d]furan-1-carboxamide-N1-oxide] |  | 128 nM | 2.54 nM
O=C(Nc1ccncc1)c1ccc(OC(F)F)c2oc3ccc(C(F)(F)F)cc3c12 [Example 14, N-(pyrid-4-yl)-4-difluoromethoxy-8-trifluoromethyl dibenzo[b,d]furan-1-carboxamide] | 228 °C |  | 6.41 nM
O=C(Nc1c(Cl)cncc1Cl)c1ccc(OCC2CC2)c2oc3ccccc3c12 [Example 25, N-(3,5-dichloropyrid-4-yl)-4-cyclopropylmethoxy dibenzo[b,d]furan-1-carboxamide] | 242 °C |  | 111 nM
COc1ccc(C(=O)Nc2c(Cl)cncc2Cl)c2c1oc1ccc([N+](=O)[O-])cc12 [Example 38, N-(3,5-dichloropyrid-4-yl)-4-methoxy-8-nitro dibenzo[b,d]furan-1-carboxamide] |  | 87.9 nM | 2.85 nM
O=C(Nc1c(Cl)c[n+]([O-])cc1Cl)c1ccc(OC(F)F)c2oc3ccccc3c12 [Example 56, N-(3,5-dichloropyrid-4-yl)-4-difluoromethoxy-dibenzo[b,d]furan-1-carboxamide-N-oxide] |  | 49.2 nM | 2.85 nM
COc1ccc(C(=O)Nc2c(Cl)cncc2Cl)c2c1oc1ccc(C#N)cc12 [Example 57, N-(3,5dichloropyrid-4-yl)-4-methoxy-8-cyano-dibenzo[b,d]furan-1-carboxamide] |  | 73.7 nM | 1.74 nM
COc1ccc(S(=O)(=O)Nc2c(Cl)cccc2Cl)c2c1[nH]c1ccccc12 [Example 77, N4-(2,6-Dichlorophenyl)-1-methoxy-9H-4-carbazolsulphonamide] | 201 to 205 °C |  | 
